# From US9695155B2, “Herbicidal substituted pyrimidinyloxy benzene compounds” (E. I. DU PONT DE NEMOURS AND COMPANY, priority 2013, dated 2017)
# What was measured:
# velvetleaf [1] = assay: Test A preemergence; format: in vivo, Abutilon theophrasti; details: for Velvetleaf plant response rating (0 to 100 scale): 125 g ai/ha; for Velvetleaf plant response rating: 500 g ai/ha, 0 to 100 scale where 0 is no effect and 100 is complete control
# Outline: (§1)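 Pre- and postemergence greenhouse screen. Soil: loam + sand. Spray carrier: solvent mixture, non-phytotoxic, with surfactant. Post timing at 1–2 leaves, height 2–10 cm. Readout: visual injury on a 0–100 scale roughly 10 days after application, untreated plants as reference.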
# velvetleaf [2] = assay: Test A postemergence; format: in vivo, Abutilon theophrasti
# Outline: as §1
# giant foxtail = assay: Test A preemergence; format: in vivo, Setaria faberii; details: for Plant response rating, Foxtail, Giant / Foxtail, Giant plant response rating: 0 to 100 scale where 0 is no effect and 100 is complete control; for Foxtail, Giant plant response rating: 500 g ai/ha
# Outline: as §1
# corn = assay: Test A postemergence; format: in vivo, Zea mays
# Outline: as §1
# wheat = assay: Test A preemergence; format: in vivo, Triticum aestivum; details: for Wheat plant response rating (0 to 100 scale): 125 g ai/ha; for Wheat plant response rating: 500 g ai/ha, 0 to 100 scale where 0 is no effect and 100 is complete control
# Outline: as §1
# morningglory [3] = assay: Test A postemergence; format: in vivo, Ipomoea spp.
# Outline: as §1
# morningglory [4] = assay: Test A preemergence; format: in vivo, Ipomoea spp.; details: for Morningglory plant response rating (0 to 100 scale): 125 g ai/ha; for Morningglory plant response rating: 500 g ai/ha, 0 to 100 scale where 0 is no effect and 100 is complete control
# Outline: as §1
# pigweed = assay: Test C postemergence; format: in vivo, Amaranthus retroflexus
# Text: (§2) Seeds of plant species selected from blackgrass (Alopecurus myosuroides), Italian ryegrass (Lolium multiflorum), wheat, winter (winter wheat, Triticum aestivum), galium (catchweed bedstraw, Galium aparine), corn (Zea mays), large (Lg) crabgrass (Digitaria sanguinalis), giant foxtail (Setaria faberii), johnsongrass (Sorghum halepense), lambsquarters (Chenopodium album), morningglory (Ipomoea coccinea), yellow nutsedge (Cyperus esculentus), pigweed (Amaranthus retroflexus), ragweed (common ragweed, Ambrosia elatior), soybean (Glycine max), barnyardgrass (Echinochloa crus-galli), oilseed rape (Brassica napus), waterhemp (common waterhemp, Amaranthus rudis), kochia (Kochia scoparia), wild oat (Avena fatua), surinam grass (Brachiaria decumbens), foxtail, green (green foxtail, Setaria viridis), goosegrass (Eleusine indica), bromegrass, downy (downy bromegrass, Bromus tectorum), nightshade (eastern black nightshade, Solanum ptycanthum), cocklebur (common cocklebur, Xanthium strumarium), cupgrass, woolly (woolly cupgrass, Eriochloa villosa), bermudagrass (Cynodon dactylon), sunflower, (common oilseed sunflower, Helianthus annuus), Russian thistle (Salsola kali), and velvetleaf (Abutilon theophrasti) were planted into a blend of loam soil and sand and treated preemergence with test chemicals formulated in a non-phytotoxic solvent mixture which included a surfactant.
# (§3) At the same time, plants selected from these crop and weed species and also barley, winter (winter barley, Hordeum vulgare), windgrass (Apera spica-venti), chickweed (common chickweed, Stellaria media), deadnettle (henbit deadnettle, Lamium amplexicaule), and canarygrass (littleseed canarygrass, Phalaris minor) were planted in pots containing Redi-Earth® planting medium (Scotts Company, 14111 Scottslawn Road, Marysville, Ohio 43041) comprising spaghnum peat moss, vermiculite, wetting agent and starter nutrients and treated with postemergence applications of test chemicals formulated in the same manner. Plants ranged in height from 2 to 18 cm (1- to 4-leaf stage) for postemergence treatments. Treated plants and controls were maintained in a greenhouse for 13 to 15 days, after which time all species were compared to controls and visually evaluated. Plant response ratings, summarized in Table C, are based on a scale of 0 to 100 where 0 is no effect and 100 is complete control. A dash (-) response means no test result.
# galium = assay: Test C postemergence; format: in vivo, Galium aparine
# Text: as §2, §3
# soybean = assay: Test C postemergence; format: in vivo, Glycine max
# Text: as §2, §3
# kochia = assay: Test C postemergence; format: in vivo, Kochia scoparia
# Text: as §2, §3
# johnsongrass = assay: Test C postemergence; format: in vivo, Sorghum halepense
# Text: as §2, §3
# blackgrass = assay: Test C postemergence; format: in vivo, Alopecurus myosuroides
# Text: as §2, §3
# oilseed rape = assay: Test C postemergence; format: in vivo, Brassica napus
# Text: as §2, §3
# waterhemp = assay: Test C postemergence; format: in vivo, Amaranthus rudis
# Text: as §2, §3
# wheat, winter = assay: Test C postemergence; format: in vivo, Triticum aestivum
# Text: as §2, §3
# ragweed = assay: Test C postemergence; format: in vivo, Ambrosia elatior
# Text: as §2, §3
# [5] = 125 g ai/ha, 0 to 100 scale where 0 is no effect and 100 is complete control
# [6] = 500 g ai/ha, 0 to 100 scale where 0 is no effect and 100 is complete control
# [7] = 125 g ai/ha, 0 to 100 scale, 0 no effect, 100 complete control
# [8] = 16 g ai/ha, postemergence, 0 is no effect, 100 is complete control
# [9] = 31 g ai/ha, postemergence, visual rating, scale 0 to 100 (0 no effect, 100 complete control), 13 to 15 days
# [10] = 125 g ai/ha, postemergence, visual rating, scale 0 to 100 (0 no effect, 100 complete control)
# [11] = Postemergence, 62 g ai/ha, scale 0 to 100 (0 no effect, 100 complete control)
compound,measurement,setting,value
FC(F)c1cccc(Oc2ncc(Cl)cn2)c1-n1cc(C(F)(F)F)cn1 [Compound 170],Velvetleaf plant response rating (0 to 100 scale),velvetleaf [1],80
same,Velvetleaf plant response rating,velvetleaf [1],100
same,Velvetleaf plant response rating,velvetleaf [2]; [5],70
same,"Plant response rating, Velvetleaf",velvetleaf [2]; [6],100
same,"Plant response rating, Foxtail, Giant",giant foxtail; 125 g ai/ha,100
same,"Foxtail, Giant plant response rating",giant foxtail,90
same,Corn plant response rating,corn; [5],80
same,"Plant response rating, Corn",corn; [6],90
same,Wheat plant response rating (0 to 100 scale),wheat,20
same,Wheat plant response rating,wheat,20
same,Morningglory plant response rating,morningglory [3]; [5],60
same,"Plant response rating, Morningglory",morningglory [3]; [6],90
same,Morningglory plant response rating (0 to 100 scale),morningglory [4],20
same,Morningglory plant response rating,morningglory [4],90
NC(=S)c1cccc(Oc2ncc(Cl)cn2)c1-n1cc(Cl)cn1 [Compound 292],Velvetleaf plant response rating (0 to 100 scale),velvetleaf [1],30
same,Velvetleaf plant response rating,velvetleaf [1],100
same,"Plant response rating, Velvetleaf",velvetleaf [2]; [7],70
same,"Plant response rating, Velvetleaf",velvetleaf [2]; [6],100
same,"Foxtail, Giant plant response rating (0 to 100 scale)",giant foxtail; 125 g ai/ha,100
same,"Foxtail, Giant plant response rating",giant foxtail,100
same,"Plant response rating, Corn",corn; [7],50
same,"Plant response rating, Corn",corn; [6],80
same,Wheat plant response rating (0 to 100 scale),wheat,10
same,Wheat plant response rating,wheat,30
same,"Plant response rating, Morningglory",morningglory [3]; [7],90
same,"Plant response rating, Morningglory",morningglory [3]; [6],100
same,Morningglory plant response rating (0 to 100 scale),morningglory [4],30
same,Morningglory plant response rating,morningglory [4],90
FC(F)c1cccc(Oc2ncc(Br)cn2)c1-n1cc(C(F)(F)F)cn1 [Compound 163],Velvetleaf plant response rating (0 to 100 scale),velvetleaf [1],20
same,Velvetleaf plant response rating,velvetleaf [1],100
same,"Plant response rating (0 to 100), Pigweed",pigweed; [8],80
same,Pigweed plant response rating,pigweed; [9],85
same,"Plant response rating, Pigweed",pigweed; [10],90
same,"Plant response rating, Pigweed",pigweed; [11],90
same,Velvetleaf plant response rating,velvetleaf [2]; [5],100
same,"Plant response rating, Velvetleaf",velvetleaf [2]; [6],100
same,"Plant response rating (0 to 100), Galium",galium; [8],70
same,Galium plant response rating,galium; [9],50
same,"Plant response rating, Galium",galium; [10],95
same,"Plant response rating, Galium",galium; [11],85
same,"Plant response rating (0 to 100), Soybean",soybean; [8],35
same,Soybean plant response rating,soybean; [9],50
same,"Plant response rating, Soybean",soybean; [10],75
same,"Plant response rating, Soybean",soybean; [11],80
same,"Plant response rating, Foxtail, Giant",giant foxtail; 125 g ai/ha,100
same,"Foxtail, Giant plant response rating",giant foxtail,100
same,"Plant response rating (0 to 100), Kochia",kochia; [8],90
same,Kochia plant response rating,kochia; [9],90
same,"Plant response rating, Kochia",kochia; [10],100
same,"Plant response rating, Kochia",kochia; [11],100
same,Corn plant response rating,corn; [5],30
same,"Plant response rating, Corn",corn; [6],50
same,"Plant response rating (0 to 100), Johnsongrass",johnsongrass; [8],5
same,Johnsongrass plant response rating,johnsongrass; [9],5
same,"Plant response rating, Johnsongrass",johnsongrass; [10],10
same,"Plant response rating, Johnsongrass",johnsongrass; [11],5
same,"Plant response rating (0 to 100), Blackgrass",blackgrass; [8],0
same,Blackgrass plant response rating,blackgrass; [9],5
same,"Plant response rating, Blackgrass",blackgrass; [10],15
same,"Plant response rating, Blackgrass",blackgrass; [11],5
same,Wheat plant response rating (0 to 100 scale),wheat,0
same,Wheat plant response rating,wheat,10
same,Morningglory plant response rating,morningglory [3]; [5],90
same,"Plant response rating, Morningglory",morningglory [3]; [6],100
same,Morningglory plant response rating (0 to 100 scale),morningglory [4],0
same,Morningglory plant response rating,morningglory [4],70
same,"Plant response rating (0 to 100), Oilseed Rape",oilseed rape; [8],45
same,Oilseed Rape plant response rating,oilseed rape; [9],30
same,"Plant response rating, Oilseed Rape",oilseed rape; [10],80
same,"Plant response rating, Oilseed Rape",oilseed rape; [11],60
same,"Plant response rating (0 to 100), Waterhemp",waterhemp; [8],75
same,Waterhemp plant response rating,waterhemp; [9],75
same,"Plant response rating, Waterhemp",waterhemp; [10],80
same,"Plant response rating, Waterhemp",waterhemp; [11],85
same,"Plant response rating (0 to 100), Wheat","wheat, winter; [8]",0
same,Wheat plant response rating,"wheat, winter; [9]",0
same,"Plant response rating, Wheat","wheat, winter; [10]",5
same,"Plant response rating, Wheat","wheat, winter; [11]",0
same,"Plant response rating (0 to 100), Ragweed",ragweed; [8],10
same,Ragweed plant response rating,ragweed; [9],35
same,"Plant response rating, Ragweed",ragweed; [10],60
same,"Plant response rating, Ragweed",ragweed; [11],35
N#Cc1cnn(-c2c(C#N)cccc2Oc2ncc(Br)cn2)c1 [Compound 135],"Plant response rating, Foxtail, Giant",giant foxtail; 125 g ai/ha,70
same,"Foxtail, Giant plant response rating",giant foxtail,100
same,Corn plant response rating,corn; [5],10
same,"Plant response rating, Corn",corn; [6],80
